Assay results taken from US9995734B2, “Human T cell line assay for evaluating the immunologic identity of glatiramer acetate preparations” (Mylan Inc., priority 2013, dated 2018).
Several values for one entry are separate records, joined by “and”; a condition that tells them apart may be missing. Equal values may be shown once.

Key:
Donor 3 COP T-Cell Lines = assay: ATP proliferation assay (CellTiter Glo), Donor 3 COP T-cell lines, incl. reactivity to non-canonical GA peptides; type: cell-based, human; conditions: for Non-Canonical Peptide Reactivity: at least one proliferation value >=2 times no antigen control
Donor 1 COP T-Cell Lines = assay: ATP proliferation assay (CellTiter Glo), Donor 1 COP T-cell lines, incl. reactivity to non-canonical GA peptides; type: cell-based, human; conditions: for luminescent ATP proliferation assay, mean: no antigen 5673 (Table 9)
Method in brief: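 Donor 1 COP-derived T-cell lines restimulated with GA, COP, GMA or non-canonical GA peptides (1–30 µg/mL) alongside mitomycin C-treated autologous PBMC or B-LCL APC. Proliferation read as ATP content by CellTiter Glo luminescence, 48 h after stimulation in later screens (3 days in initial split-well screens). Controls: no antigen (GMA series), MBP (COP series).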

poly (Glu-Lys; 1:4) [GL 14]
Non-Canonical Peptide Reactivity (Donor 3 COP T-Cell Lines; 165-C4C): GL 14 | Non-Canonical Peptide Reactivity (Donor 3 COP T-Cell Lines; 165-C7C): GL 14 | proliferation response to non-canonical GA peptides (Donor 3 COP T-Cell Lines; 165-F3C (Day 77) and 165-C4C (Day 66), 0, 1, 3, 10 μg/mL): responded well | Non-Canonical Peptide Reactivity (Donor 3 COP T-Cell Lines; 165-F3C): GL 14 | proliferation response to non-canonical GA peptides (Donor 3 COP T-Cell Lines; 165-F6C, Day 76, 0, 1.25, 2.5, 5, 10 μg/mL): reacted | response relative to the no antigen control (Donor 3 COP T-Cell Lines; 165-F6C, Day 76, dose of 2.5 μg/mL antigen): 4.4 fold | Non-Canonical Peptide Reactivity (Donor 3 COP T-Cell Lines; 165-F6C): GL 14 | Reactive T-Cell Line (Donor 3 COP T-Cell Lines; Donor 3 COP lines, at least a 50% increase in proliferation relative to a control after stimulation with the non-canonical GA peptide): 165-C4C (Donor 3) and 165-C7C (Donor 3) and 165-F6C (Donor 3) and 165-F3C (Donor 3) | Proliferation (luminescent ATP assay), Mean (Donor 3 COP T-Cell Lines; T-cell line 165-C4C, 1 μg/mL antigen, Day 66 of culture, 0 μg/mL 1881): 2833 | Proliferation (luminescent ATP assay), Mean (Donor 3 COP T-Cell Lines; T-cell line 165-C4C, 3 μg/mL antigen, Day 66 of culture, 0 μg/mL 1881): 4920 | Proliferation (luminescent ATP assay), Mean (Donor 3 COP T-Cell Lines; T-cell line 165-C4C, 10 μg/mL antigen, Day 66 of culture, 0 μg/mL 1881): 49 | Proliferation (luminescent ATP assay), Mean (Donor 3 COP T-Cell Lines; T-cell line 165-C7C, 1.25 μg/mL antigen, autologous B-LCL): 274 RLU | Proliferation (luminescent ATP assay), Mean (Donor 3 COP T-Cell Lines; T-cell line 165-C7C, 2.5 μg/mL antigen, autologous B-LCL): 1797 RLU | Proliferation (luminescent ATP assay), Mean (Donor 3 COP T-Cell Lines; T-cell line 165-C7C, 5 μg/mL antigen, autologous B-LCL): 537 RLU | Proliferation (luminescent ATP assay), Mean (Donor 3 COP T-Cell Lines; T-cell line 165-C7C, 10 μg/mL antigen, autologous B-LCL): 39 RLU | Proliferation (luminescent ATP assay), Mean (Donor 3 COP T-Cell Lines; T-cell line 165-F3C, 1 μg/mL antigen, Day 77 of culture, 0 μg/mL 1563): 2542 | Proliferation (luminescent ATP assay), Mean (Donor 3 COP T-Cell Lines; T-cell line 165-F3C, 3 μg/mL antigen, Day 77 of culture, 0 μg/mL 1563): 7091 | Proliferation (luminescent ATP assay), Mean (Donor 3 COP T-Cell Lines; T-cell line 165-F3C, 10 μg/mL antigen, Day 77 of culture, 0 μg/mL 1563): 65 | Proliferation (luminescent ATP assay), Mean (Donor 3 COP T-Cell Lines; T-cell line 165-F6C, 1.25 μg/mL antigen, Day 76 of culture, No Antigen value 517): 699 | Proliferation (luminescent ATP assay), Mean (Donor 3 COP T-Cell Lines; T-cell line 165-F6C, 2.5 μg/mL antigen, Day 76 of culture, No Antigen value 517): 2,267 | Proliferation (luminescent ATP assay), Mean (Donor 3 COP T-Cell Lines; T-cell line 165-F6C, 5 μg/mL antigen, Day 76 of culture, No Antigen value 517): 114 | Proliferation (luminescent ATP assay), Mean (Donor 3 COP T-Cell Lines; T-cell line 165-F6C, 10 μg/mL antigen, Day 76 of culture, No Antigen value 517): 33 | proliferation response to non-canonical GA peptides (Donor 1 COP T-Cell Lines; 222-2F12, Day 56, 0, 3, 10, 30 μg/mL, GL 14 response at 3 μg/mL): responded | luminescent ATP proliferation assay, mean (Donor 1 COP T-Cell Lines; 222-2F12, Day 56, 3 μg/mL): 17007 | luminescent ATP proliferation assay, mean (Donor 1 COP T-Cell Lines; 222-2F12, Day 56, 10 μg/mL): 331 | luminescent ATP proliferation assay, mean (Donor 1 COP T-Cell Lines; 222-2F12, Day 56, 30 μg/mL): 203 | Non-Canonical Peptide Reactivity (Donor 1 COP T-Cell Lines; 222-2F12, at least one proliferation value >=2 times no antigen control): GL 14 | Reactive T-Cell Line (Donor 1 COP T-Cell Lines; Donor 1 COP lines, at least a 50% increase in proliferation relative to a control after stimulation with the non-canonical GA peptide): 222-2F12 (Donor 1) | Nonreactive T-Cell Line (Donor 1 COP T-Cell Lines; Donor 1 COP lines, stimulation with the non-canonical GA peptide): 222-1H12 (Donor 1)
